In ChEMBL document CHEMBL1201862, “PubChem BioAssay data set” (2004):
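Dose response: 5 concentrations. Exposure: 48 h. Format: 96-well plates. Endpoint: linear interpolation; highest concentration if not reached. Here, GI50 denotes the concentration required for 50% inhibition of growth.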 Calls of active or inactive are those of the source. Cut-off read from the data, not from the text of the source: active = GI50 up to about 1.1 µM and inactive = higher.

What was measured:
Test in all cases: DTP human tumour cell line panel, 48 h
[1] = system: M19-MEL
[2] = system: SR
[3] = system: OVCAR-3
[4] = system: RPMI-8226
[5] = system: HOP-18
[6] = system: SK-OV-3
[7] = system: UO-31
[8] = system: K562
[9] = system: UACC-257
[10] = system: 786-0
[11] = system: NCI-H460
[12] = system: IGROV-1
[13] = system: HOP-62
[14] = system: DMS-273
[15] = system: SW-620
[16] = system: RXF 631
[17] = system: HCT-15
[18] = system: NCI-H23
[19] = system: CCRF-CEM
[20] = system: HL-60
[21] = system: COLO 205
[22] = system: SF-539
[23] = system: SN12C
[24] = system: SNB-75
[25] = system: OVCAR-5
[26] = system: TK-10
[27] = system: HT-29
[28] = system: U-251
[29] = system: OVCAR-4
[30] = system: MOLT-4
[31] = system: DLD-1
[32] = system: M14
[33] = system: OVCAR-8
[34] = system: SK-MEL-28
[35] = system: NCI-H522
[36] = system: SF-295
[37] = system: A498
[38] = system: KM-20L2
[39] = system: NCI-H226
[40] = system: SNB-19
[41] = system: SK-MEL-2
[42] = system: HOP-92
[43] = system: KM12
[44] = system: RXF 393
[45] = system: LOX IMVI
[46] = system: SNB-78
[47] = system: EKVX
[48] = system: XF498
[49] = system: ACHN
[50] = system: UACC-62
[51] = system: DMS-114
[52] = system: SF-268
[53] = system: CAKI-1
[54] = system: HCC 2998
[55] = system: HCT-116
[56] = system: LXFL 529
[57] = system: A549
[58] = system: SK-MEL-5
[59] = system: Malme-3M

COc1cc2c(cc1OC)C(N(C)C)C(c1ccccc1)=C2Cl (centres undefined)
GI50 [1]: 18.5 µM (inactive)
GI50 [2]: 4.54 µM (inactive)
GI50 [3]: 21.3 µM (inactive)
GI50 [4]: 18.2 µM (inactive)
GI50 [5]: 28.5 µM (inactive)
GI50 [6]: 22 µM (inactive)
GI50 [7]: 16.9 µM (inactive)
GI50 [8]: 27.9 µM (inactive)
GI50 [9]: 18 µM (inactive)
GI50 [10]: 25.3 µM (inactive)
GI50 [11]: 19 µM (inactive)
GI50 [12]: 21.8 µM (inactive)
GI50 [13]: 36.4 µM (inactive)
GI50 [14]: 16.4 µM (inactive)
GI50 [15]: 16.2 µM (inactive)
GI50 [16]: 15.7 µM (inactive)
GI50 [17]: 17.5 µM
GI50 [18]: 16.9 µM (inactive)
GI50 [19]: 60.5 µM (inactive)
GI50 [20]: 16.1 µM (inactive)
GI50 [21]: 17.9 µM (inactive)
GI50 [22]: 20.5 µM (inactive)
GI50 [23]: 18.7 µM (inactive)
GI50 [24]: 20 µM (inactive)
GI50 [25]: 34 µM (inactive)
GI50 [26]: 37.5 µM (inactive)
GI50 [27]: 19.9 µM (inactive)
GI50 [28]: 16.6 µM (inactive)
GI50 [29]: 27.4 µM (inactive)
GI50 [30]: 12.5 µM (inactive)
GI50 [31]: 15.1 µM (inactive)
GI50 [32]: 19.8 µM (inactive)
GI50 [33]: 18.9 µM (inactive)
GI50 [34]: 18.7 µM (inactive)
GI50 [35]: 10.1 µM (inactive)
GI50 [36]: 22.8 µM (inactive)
GI50 [37]: 22.5 µM (inactive)
GI50 [38]: 25 µM (inactive)
GI50 [39]: 21.9 µM (inactive)
GI50 [40]: 37.9 µM (inactive)
GI50 [41]: 18.7 µM (inactive)
GI50 [42]: 17.9 µM (inactive)
GI50 [43]: 23.2 µM (inactive)
GI50 [44]: 15.5 µM (inactive)
GI50 [45]: 17.4 µM (inactive)

CSc1ccc(/C=C2\CN(C)C/C(=C\c3ccc(SC)cc3)C2=O)cc1
GI50 [1]: 35.1 µM (inactive)
GI50 [2]: 7.57 µM (inactive)
GI50 [3]: 13.8 µM (inactive)
GI50 [4]: 2.52 µM (inactive)
GI50 [46]: 19.8 µM (inactive)
GI50 [5]: > 100 µM (inactive)
GI50 [6]: 30.8 µM (inactive)
GI50 [47]: 81.3 µM (inactive)
GI50 [7]: > 100 µM (inactive)
GI50 [8]: 22.2 µM (inactive)
GI50 [9]: 31.7 µM (inactive)
GI50 [48]: 18.9 µM (inactive)
GI50 [10]: 54.1 µM (inactive)
GI50 [11]: 29.2 µM (inactive)
GI50 [12]: 32.6 µM (inactive)
GI50 [13]: > 100 µM (inactive)
GI50 [14]: 14.1 µM (inactive)
GI50 [15]: 23 µM (inactive)
GI50 [17]: 32 µM
GI50 [18]: 4.52 µM (inactive)
GI50 [19]: 23.1 µM (inactive)
GI50 [49]: 40.6 µM (inactive)
GI50 [20]: 21.1 µM (inactive)
GI50 [50]: 55.8 µM (inactive)
GI50 [21]: 21.2 µM (inactive)
GI50 [22]: 20 µM (inactive)
GI50 [23]: 23.3 µM (inactive)
GI50 [24]: 12.5 µM (inactive)
GI50 [51]: 24.9 µM (inactive)
GI50 [52]: 29.2 µM (inactive)
GI50 [25]: > 100 µM (inactive)
GI50 [26]: 56.6 µM (inactive)
GI50 [27]: 15.2 µM (inactive)
GI50 [53]: > 100 µM (inactive)
GI50 [54]: 79.4 µM (inactive)
GI50 [55]: 20.4 µM (inactive)
GI50 [56]: 5.22 µM (inactive)
GI50 [28]: 4.65 µM (inactive)
GI50 [29]: > 100 µM (inactive)
GI50 [30]: 19.4 µM (inactive)
GI50 [57]: > 100 µM (inactive)
GI50 [31]: 11.5 µM (inactive)
GI50 [32]: 92.3 µM (inactive)
GI50 [33]: 13.5 µM (inactive)
GI50 [34]: > 100 µM (inactive)
GI50 [36]: 21.1 µM (inactive)
GI50 [37]: 46.8 µM (inactive)
GI50 [38]: 32.1 µM (inactive)
GI50 [39]: > 100 µM (inactive)
GI50 [41]: 39.4 µM (inactive)
GI50 [42]: 4.23 µM (inactive)
GI50 [43]: 8.75 µM (inactive)
GI50 [58]: 48.8 µM (inactive)
GI50 [59]: > 100 µM (inactive)
GI50 [44]: 22 µM (inactive)
GI50 [45]: 6.47 µM (inactive)

O=C(CC1(O)C(=O)Nc2ccc([N+](=O)[O-])cc21)c1ccc2ccccc2c1 (centres undefined)
GI50 [1]: > 100 µM (inactive)
GI50 [2]: > 100 µM (inactive)
GI50 [3]: > 100 µM (inactive)
GI50 [4]: > 100 µM (inactive)
GI50 [46]: > 100 µM (inactive)
GI50 [6]: > 100 µM (inactive)
GI50 [47]: > 100 µM (inactive)
GI50 [7]: > 100 µM (inactive)
GI50 [8]: > 100 µM (inactive)
GI50 [9]: > 100 µM (inactive)
GI50 [10]: > 100 µM (inactive)
GI50 [11]: > 100 µM (inactive)
GI50 [12]: > 100 µM (inactive)
GI50 [13]: > 100 µM (inactive)
GI50 [14]: > 100 µM (inactive)
GI50 [15]: > 100 µM (inactive)
GI50 [16]: > 100 µM (inactive)
GI50 [17]: > 100 µM
GI50 [18]: > 100 µM (inactive)
GI50 [19]: > 100 µM (inactive)
GI50 [49]: > 100 µM (inactive)
GI50 [20]: > 100 µM (inactive)
GI50 [50]: > 100 µM (inactive)
GI50 [21]: > 100 µM (inactive)
GI50 [22]: > 100 µM (inactive)
GI50 [23]: > 100 µM (inactive)
GI50 [24]: > 100 µM (inactive)
GI50 [51]: > 100 µM (inactive)
GI50 [52]: > 100 µM (inactive)
GI50 [25]: > 100 µM (inactive)
GI50 [26]: > 100 µM (inactive)
GI50 [27]: > 100 µM (inactive)
GI50 [54]: > 100 µM (inactive)
GI50 [55]: > 100 µM (inactive)
GI50 [56]: > 100 µM (inactive)
GI50 [28]: > 100 µM (inactive)
GI50 [29]: > 100 µM (inactive)
GI50 [30]: > 100 µM (inactive)
GI50 [57]: > 100 µM (inactive)
GI50 [31]: > 100 µM (inactive)
GI50 [32]: > 100 µM (inactive)
GI50 [33]: > 100 µM (inactive)
GI50 [34]: > 100 µM (inactive)
GI50 [35]: 65.6 µM (inactive)
GI50 [36]: > 100 µM (inactive)
GI50 [37]: > 100 µM (inactive)
GI50 [38]: > 100 µM (inactive)
GI50 [39]: > 100 µM (inactive)
GI50 [40]: > 100 µM (inactive)
GI50 [41]: > 100 µM (inactive)
GI50 [43]: > 100 µM (inactive)
GI50 [59]: > 100 µM (inactive)
GI50 [44]: > 100 µM (inactive)
